Data: paper PMC5607274, “An iterative compound screening contest method for identifying target protein inhibitors using the tyrosine-protein kinase Yes” (Scientific Reports, 2017)

Biological target: T1, human recombinant Yes [a.a. 2–543 (end)] (Homo sapiens, UniProt P07947)
T1 construct: human recombinant Yes [a.a; 2–543 (end)]; purchased BPS Bioscience 40488
Assay: ADP-Glo kinase assay, inhibition rates of Yes phosphorylation activity (first and second screening)
Format: biochemical
Settings: first screening; mean of n = 4 wells; 10 μmol L−1 compound
In short: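 Hits from a first pass were rescreened after re-dissolution from fresh powder. The first pass reported the mean inhibition rate of quadruplicate wells per compound. Activity was that of recombinant human Yes [a.a. 2–543] kinase, read out with the ADP-Glo ADP-detection method.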

T1 sequence (P07947 2-543): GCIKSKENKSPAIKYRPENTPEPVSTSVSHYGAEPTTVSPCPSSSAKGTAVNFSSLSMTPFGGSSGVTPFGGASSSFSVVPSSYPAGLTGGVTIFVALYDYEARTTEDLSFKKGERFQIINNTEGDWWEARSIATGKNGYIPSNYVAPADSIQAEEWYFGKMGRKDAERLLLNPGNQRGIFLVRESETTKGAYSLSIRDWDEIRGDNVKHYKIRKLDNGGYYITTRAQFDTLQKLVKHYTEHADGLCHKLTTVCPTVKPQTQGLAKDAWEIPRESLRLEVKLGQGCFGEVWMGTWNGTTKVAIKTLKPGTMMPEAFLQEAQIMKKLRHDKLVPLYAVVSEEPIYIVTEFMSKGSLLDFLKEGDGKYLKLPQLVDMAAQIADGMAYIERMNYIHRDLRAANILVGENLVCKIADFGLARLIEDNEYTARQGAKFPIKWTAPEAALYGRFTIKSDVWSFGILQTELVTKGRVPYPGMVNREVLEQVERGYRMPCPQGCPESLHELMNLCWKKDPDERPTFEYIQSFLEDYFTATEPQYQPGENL

First screening IR (inhibition rate) [%]	Compound
2	Cc1ccc(C(=O)CC2(O)C(=O)Nc3ccc(Cl)cc32)cc1 (stereo not shown) [Compound Z57172226]
62	O=C(C1=C(O)C(=O)N(CCCn2ccnc2)C1c1cccc([N+](=O)[O-])c1)c1ccco1 (stereo not shown) [Compound Z57237939]
46	COCCNC(=O)/C(=C\c1ccc(-c2cccc(Cl)c2)o1)NC(=O)c1ccc(OC)cc1 [Compound Z57239420]
41	O=S(=O)(Nc1cccc(-c2cn3ccccc3n2)c1)c1ccccc1 [Compound Z57289575]
-9	O=C(N/N=C/c1ccco1)c1cc(-c2ccc(Br)s2)[nH]n1 [Compound Z57393573]
4	Clc1ccc2nc(NC3=NCN(CCN4CCOCC4)CN3)nc(-c3ccccc3)c2c1 [Compound Z57440306]
1	COc1ccc(-n2cc(-c3ccccc3)c3c(NCCCO)ncnc32)cc1 [Compound Z57455872]
16	COCCNc1ncnc2c1c(-c1ccccc1)cn2-c1ccc(OC)cc1 [Compound Z57455912]
9	Cc1ccc(Cn2ncc3c(NN)ncnc32)cc1 [Compound Z57458515]
23	CCS(=O)(=O)Nc1ccc(C2=NN(S(=O)(=O)c3ccc(C)cc3)C(c3ccco3)C2)cc1 (stereo not shown) [Compound Z57514609]
-12	Oc1ccc(F)cc1C1=NNC(c2cc(Br)cc3c2OCOC3)C1 (stereo not shown) [Compound Z57604399]
-1	Cc1cccnc1NC(=O)c1ccc(CSc2ccccc2)cc1 [Compound Z58490632]
5	Cc1nn(C2CCS(=O)(=O)C2)c2nc(C3CC3)cc(C(=O)NCc3ccc4c(c3)OCO4)c12 (stereo not shown) [Compound Z60362928]
46	COc1cc(NC(=O)c2ccccc2)c(OC)cc1NC(=O)COc1ccc(-c2nnco2)cc1 [Compound Z62746884]
2	CN(CC(=O)NCc1ccco1)C(=O)/C=C/c1ccc(-n2ccnc2)cc1 [Compound Z62804747]
6	CN(CC(=O)N1CCN(CC(=O)NC(C)(C)C)CC1)c1ncnc2cc(-c3ccc(F)cc3)sc12 [Compound Z64655268]
-4	CCN(c1ccc(-c2csc(Nc3ccc(OC)cc3)n2)cc1)S(C)(=O)=O [Compound Z64779311]
2	Cn1cc(/C=N/Nc2ccnc3cc(Cl)ccc23)cn1 [Compound Z65478686]
2	CCc1ccc(S(=O)(=O)N(CC)C2CCS(=O)(=O)C2)cc1 (stereo not shown) [Compound Z65566827]

First screening IR (inhibition rate) [%]	Compound
0	CC(c1ccc(S(N)(=O)=O)cc1)N(C)S(=O)(=O)c1cc(Cl)cc(Cl)c1 (stereo not shown) [Compound Z65599853]
-1	Cn1c(SCC(=O)N2c3ccccc3OCC2c2ccccc2)nnc1-c1ccncc1 (stereo not shown) [Compound Z65769442]
-3	COc1ccc(-c2nnc(SCC(=O)N3c4ccccc4OCC3c3ccccc3)n2C)cc1 (stereo not shown) [Compound Z65980497]
-6	COc1ccc(-c2cc(NC(=O)C3CCC(=O)N3)ccc2OC(F)F)cc1 (stereo not shown) [Compound Z70775126]
17	Cc1ccc(S(=O)(=O)N(C)c2ccc(OCC(=O)Nc3ccc4oc(C)nc4c3)cc2)cc1 [Compound Z70909087]
11	CCCOc1ccc(OCC(=O)Nc2ccc3oc(C)nc3c2)cc1 [Compound Z70909650]
9	CCN(CC)c1ccc([N+](=O)[O-])cc1C(=O)Nc1ccc2nc(N3CCOCC3)sc2c1 [Compound Z70970124]
-15	COc1ccc(CCN2CC(C(=O)Nc3c(-c4ccccc4)nc4ccc(C)cn34)CC2=O)cc1OC (stereo not shown) [Compound Z70997275]
1	Cc1cc(C)c(C)c(S(=O)(=O)N(C)C2CCS(=O)(=O)C2)c1C (stereo not shown) [Compound Z71311814]
-2	CN(C1CCS(=O)(=O)C1)S(=O)(=O)c1ccc(Cl)c(Cl)c1 (stereo not shown) [Compound Z71311982]
12	O=C(NCCOc1ccc(Cl)cc1)c1ccc2nc[nH]c2c1 [Compound Z73381327]
9	CC(C)(C)C(=O)NCc1ccc(C(=O)COC(=O)c2cc3c(s2)CCC3)s1 [Compound Z73973253]
-25	COc1ccc(S(=O)(=O)N(C)Cc2ccc3c(c2)OCO3)cc1Br [Compound Z74745150]
-9	Cc1noc(C)c1CC(=O)NN=C(c1ccccc1)c1ccccc1 [Compound Z79575803]
-1	CCN(CC)CCNC(=O)c1ccc(NC(=O)C2CCN(c3ncnc4sc(C)c(C)c34)CC2)cc1 [Compound Z79604730]
27	NS(=O)(=O)c1ccc2nc(-c3ccc4c(c3)-c3ccccc3C4)cn2c1 [Compound Z82176567]
1	CCCCN(S(C)(=O)=O)S(=O)(=O)c1ccc(OC)cc1 [Compound Z85927834]
10	O=C(COC(=O)c1ccco1)Nc1nc2ccc([N+](=O)[O-])cc2s1 [Compound Z85929771]
5	COc1ccc(-c2cc3c4ccccc4oc4nc(=N)c(C#N)c([nH]2)c43)cc1 [Compound Z85934217]

The next lines start with the compound.

Compound	First screening IR (inhibition rate) [%]
O=S1(=O)CCC(S(=O)(=O)Cl)C1 (stereo not shown) [Compound Z57163399]	-7
O=S1(=O)CC=C(S(=O)(=O)Cl)C1 [Compound Z57163400]	4
O=c1c2cccc3c2c(nn1-c1ccccc1)-c1ccccc1-3 [Compound Z57229152]	18
O=C(C1=C(O)C(=O)N(CCCn2ccnc2)C1c1ccc(Cl)cc1)c1ccco1 (stereo not shown) [Compound Z57237929]	20
O=C(NCCCn1ccnc1)/C(=C/c1ccc(-c2cccc(Cl)c2)o1)NC(=O)c1ccccc1 [Compound Z57239426]	2
O=C1C(=O)N(CCCn2ccnc2)C(c2ccc(F)cc2)/C1=C(\O)c1ccc(Cl)cc1 (stereo not shown) [Compound Z57239976]	-5
Cc1ccnc(Nc2nc3ccccc3s2)n1 [Compound Z57289339]	-13
Fc1ccc(-n2cc(-c3ccccc3)c3c(N4CCOCC4)ncnc32)cc1 [Compound Z57455467]	5
OCCNc1ncnc2c1c(-c1ccccc1)cn2-c1ccc(F)cc1 [Compound Z57455953]	-6
COc1ccc(-n2cc(-c3ccccc3)c3c(NCCOCCO)ncnc32)cc1 [Compound Z57456127]	-8
CCOc1ccc(-n2cc(-c3ccccc3)c3c(NCCO)ncnc32)cc1 [Compound Z57456164]	20
Cc1cc(=O)n2c3ccccc3n(CC(O)CN3CCN(CCOc4ccc(Cl)cc4)CC3)c2c1C#N (stereo not shown) [Compound Z57724322]	7
O=C(COc1ccc(-c2cc(-c3ccccc3)c3cc(Cl)ccc3n2)cc1)NCCO [Compound Z57805545]	39
OCCNc1nc2ccccc2n1-c1ncnc2sc3c(c12)CCCC3 [Compound Z57981090]	7
Clc1ccc(Oc2cccc(-c3nc4c5ccccc5c5ccccc5c4[nH]3)c2)cc1 [Compound Z57984419]	2
Cl.N#Cc1c(-c2ccc(Cl)cc2)nc2ccccc2c1-c1ccccc1 [Compound Z57989376]	2

Compound	First screening IR (inhibition rate) [%]
NNc1ncnc2c1cnn2Cc1ccccc1 [Compound Z58286928]	-12
C(=C\c1ccccc1)/CN1CCN(c2ncnc3c2cnn3Cc2ccccc2)CC1 [Compound Z58287009]	0
Cc1nn(C2CCS(=O)(=O)C2)c2nc(C3CC3)cc(C(=O)Nc3ccc(C(N)=O)cc3)c12 (stereo not shown) [Compound Z60779201]	17
CC(C)(C)NC(=O)CN1CCN(C(=O)CSc2nc3ccccc3c(=O)n2-c2ccccc2)CC1 [Compound Z65695011]	57
O=C(Nc1nc2c(s1)CN(Cc1ccccc1)CC2)c1cc2c(nc3sccn32)s1 [Compound Z68435865]	-4
CC(C)n1ncc2c(C(=O)N3CCN(CC(=O)N4CCOCC4)CC3)cc(-c3ccccc3)nc21 [Compound Z73457343]	7
CCOC(=O)c1cnc(SCC(=O)OC/C(O)=C(\C#N)c2nc3ccccc3[nH]2)nc1N [Compound Z76798588]	5
CC1CCc2c(sc3nc4c(c(-c5ccco5)c23)-c2ccccc2CC4)C1.Cl (stereo not shown) [Compound Z76887050]	8
Cc1cc(/C=C/C(=O)N2CCOCC2)c(C)n1-c1ccnn1C(C)C [Compound Z79434439]	15
Cc1ccc(-c2csc3ncn(CC(=O)N4CCN(CC(=O)NC(C)(C)C)CC4)c(=O)c23)cc1C [Compound Z81619452]	-8
CCCCOc1ccc(C(=O)NCC(=O)NCC(c2cccs2)N2CCOCC2)cc1 (stereo not shown) [Compound Z84671779]	6
CCN1CCC(NC(=O)C2CCN(S(=O)(=O)c3c(C)c(C)cc(C)c3C)CC2)CC1 [Compound Z85145044]	6
Cc1ccc(Nc2ncnc3sc4c(c23)CCCC4)c(O)c1 [Compound Z85929120]	2
O=C(Cn1c(CN2CCOCC2)nc2sc3c(c2c1=O)CCCC3)Nc1ccc(OCc2ccccc2)cc1 [Compound Z86108588]	16
CC(NC(=O)Nc1ccc(F)cc1F)c1ccc(-n2cncn2)cc1 (stereo not shown) [Compound Z86212654]	-3

Same assay, conditions: second screening, dissolved from fresh powder; n = 4; 10 μmol L−1 compound

Compound	Second screening IR (inhibition rate) [%]
O=C(C1=C(O)C(=O)N(CCCn2ccnc2)C1c1cccc([N+](=O)[O-])c1)c1ccco1 (stereo not shown) [Compound Z57237939]	-11
